33 compounds from ChEMBL document CHEMBL1201862, “PubChem BioAssay data set” (2004) can be followed below.

Assay [1] in a line: luciferase reporter signal suppression in cells – H4 neuroglioma cells, luminescence, dose response (AID 1990). It counts as functional, cell-based.
Assay [2] is described as follows: alpha-synuclein stem-loop luciferase translation blockers – H4 neuroglioma cells, luminescence, confirmation (AID 1988). It counts as functional, cell-based.
Assay [3] can be described thus: Luminescence Cell-Based Dose Response HTS to Identify Inhibitors of 5'UTR Stem-Loop Driven Prion Protein mRNA Translation in H4 Neuroglioblastoma Cells. [Related pubchem assays: 1827 (Project Summary), 1813 (Primary HTS)]. It counts as functional.
Assay [4] deals with T1, High affinity choline transporter 1 (Homo sapiens, UniProt Q9GZV3).
T1 sequence (Q9GZV3 whole entry): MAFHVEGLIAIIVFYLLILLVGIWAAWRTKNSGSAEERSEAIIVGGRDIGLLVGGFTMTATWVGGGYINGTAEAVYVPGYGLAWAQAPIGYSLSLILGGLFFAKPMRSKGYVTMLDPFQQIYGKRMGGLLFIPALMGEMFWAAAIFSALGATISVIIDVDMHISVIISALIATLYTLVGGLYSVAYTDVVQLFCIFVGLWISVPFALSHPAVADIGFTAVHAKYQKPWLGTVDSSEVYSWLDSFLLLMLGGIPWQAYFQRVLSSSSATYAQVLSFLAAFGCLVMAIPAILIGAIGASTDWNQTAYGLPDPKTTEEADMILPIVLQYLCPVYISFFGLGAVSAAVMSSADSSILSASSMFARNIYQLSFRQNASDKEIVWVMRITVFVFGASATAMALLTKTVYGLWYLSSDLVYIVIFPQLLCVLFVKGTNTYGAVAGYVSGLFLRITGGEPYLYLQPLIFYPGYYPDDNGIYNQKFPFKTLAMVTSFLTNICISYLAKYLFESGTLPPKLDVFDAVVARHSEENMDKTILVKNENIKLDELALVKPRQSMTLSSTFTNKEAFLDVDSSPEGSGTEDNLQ
Briefly: human choline transporter blockers, potency – cell-based, 5-point CRC, membrane potential dye, dose response (AID 504840). It counts as functional.

Assay [5] deals with Luciferin 4-monooxygenase (Photinus pyralis, UniProt P08659). Briefly: inhibition of purified Photinus pyralis luciferase – biochemical, luminescence, dose response (AID 1891).
The nature of assay [6]: Luminescence Cell-Based Dose Confirmation HTS to Identify Inhibitors of Platelet Dense Granule Release. [Related pubchem assays: 1663 (Primary HTS), 1678 (Summary of Project)]. The format is functional.
The target of assay [7] is T2, RNA-binding protein pos-1 (Caenorhabditis elegans, UniProt G5EF15).
T2 sequence (G5EF15 whole entry): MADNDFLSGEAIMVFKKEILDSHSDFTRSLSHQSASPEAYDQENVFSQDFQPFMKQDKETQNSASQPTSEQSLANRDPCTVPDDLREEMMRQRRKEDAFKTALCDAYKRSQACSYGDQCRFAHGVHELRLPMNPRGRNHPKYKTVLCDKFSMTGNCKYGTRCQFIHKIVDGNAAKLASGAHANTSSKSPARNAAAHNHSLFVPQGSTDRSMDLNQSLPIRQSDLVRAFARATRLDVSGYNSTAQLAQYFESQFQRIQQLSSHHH
Kind of assay: disruptors of C. elegans POS-1 RNA interaction – biochemical, fluorescence polarization, dose response (AID 1964).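 Also: purified POS-1 fused to maltose binding protein made in E. coli; potency of compounds blocking POS-1 binding to fluorescent RNA.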

The target in assay [8] is T3, Zinc finger protein mex-5 (Caenorhabditis elegans, UniProt Q9XUB2).
T3 sequence (Q9XUB2 whole entry): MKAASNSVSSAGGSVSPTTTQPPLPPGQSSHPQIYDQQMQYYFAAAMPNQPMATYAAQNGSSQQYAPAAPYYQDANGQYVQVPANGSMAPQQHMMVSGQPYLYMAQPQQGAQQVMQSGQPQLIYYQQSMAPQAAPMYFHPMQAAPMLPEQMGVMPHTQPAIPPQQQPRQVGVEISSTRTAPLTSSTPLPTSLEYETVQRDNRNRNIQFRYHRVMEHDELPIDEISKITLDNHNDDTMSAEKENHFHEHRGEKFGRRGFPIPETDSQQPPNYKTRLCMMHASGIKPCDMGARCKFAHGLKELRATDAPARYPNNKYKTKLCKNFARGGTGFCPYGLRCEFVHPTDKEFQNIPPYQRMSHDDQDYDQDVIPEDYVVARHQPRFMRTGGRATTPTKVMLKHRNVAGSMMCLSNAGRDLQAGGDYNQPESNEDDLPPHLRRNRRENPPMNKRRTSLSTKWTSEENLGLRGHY
Briefly: potency of MEX-5 RNA-binding blockers – biochemical, C. elegans, fluorescence polarization, dose response (AID 1960). In general terms: In fluorescence polarisation assays a small probe gives low polarisation when free and higher when bound to something large.

The target in assay [9] is Nonstructural protein 1 (Influenza A virus, UniProt Q194T2). It counts as functional, Influenza A virus (A/California/07/2009(H1N1)).
Assay [10] in a line: non-specific 3'UTR reporter inhibition in Clone20-Shn3RL – cell-based, Renilla luciferase, cherry-picked, counter-screen for Shn3 inhibitor project, dose response (AID 624133). The format is functional. On the technique in general: The purpose of a counterscreen is to sort out artefacts and off-target activity.
Assay [11] is described as follows: reduction of Shn3 3'UTR-driven luciferase in osteoblasts – cell-based, Clone20 osteoblasts, firefly luciferase, cherry-picked, dose response (AID 624132).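 Also: firefly luciferase luminescence from reporter carrying the Shn3 3'UTR in osteoblasts.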 The format is functional.
Assay [12] has as its target Genome polyprotein (dengue virus type 2, UniProt P29990). Briefly: flavivirus cap methylation enzyme inhibition – biochemical, confirmation dose response, primary screen (AID 588689). It counts as functional.
Assay [13] in a line: viability of HCT116 lacking mutant beta-catenin – cell-based, human colon tumor, dose response (AID 1045).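 Also: HCT116 colon tumor cells with beta catenin knocked out; cells exposed to compound for 60 hours.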 It counts as functional.
Assay [14] is described as follows: viability of PTEN-deleted HCT116 cells – cell-based, HCT116 PTEN knockout, dose response (AID 1047).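 Also: HCT116 colon tumor cells with PTEN knocked out; cells exposed to compound for 60 hours before readout; potency for loss of cell viability measured by luminescence.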 It counts as functional.
The nature of assay [15]: blockers of HIV-1 ZM109 envelope-driven cell-cell fusion – HeLa effector, CEM target cells, luciferase, cherry-pick, dose response (AID 652058).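 Also: luciferase signal from HIV-1 Env mediated cell-cell fusion of effector and target cells.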 It counts as functional, cell-based.
A short description of assay [16]: blockers of HIV-1 envelope-mediated cell-cell fusion – cherry-pick, dose response (AID 652057). The format is functional, cell-based.
Assay [17] in a line: HIV-1 AD8 envelope cell-cell fusion blockers – cherry-pick, dose response (AID 652062).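 Also: luciferase signal from cell-cell fusion driven by HIV-1 clade B AD8 Env; potency is for inhibitors of fusion seen as a drop in luminescence.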 The format is functional, cell-based.
Assay [18] is described as follows: P. falciparum Dd2 growth inhibitors, dose response, SYBR Green, cherry-picked samples (AID 1159567). It counts as functional, cell-based.

The structures appear in SMILES notation. Calls of active or inactive are those of the source.

Luciferin 4-monooxygenase, sequence (P08659 whole entry): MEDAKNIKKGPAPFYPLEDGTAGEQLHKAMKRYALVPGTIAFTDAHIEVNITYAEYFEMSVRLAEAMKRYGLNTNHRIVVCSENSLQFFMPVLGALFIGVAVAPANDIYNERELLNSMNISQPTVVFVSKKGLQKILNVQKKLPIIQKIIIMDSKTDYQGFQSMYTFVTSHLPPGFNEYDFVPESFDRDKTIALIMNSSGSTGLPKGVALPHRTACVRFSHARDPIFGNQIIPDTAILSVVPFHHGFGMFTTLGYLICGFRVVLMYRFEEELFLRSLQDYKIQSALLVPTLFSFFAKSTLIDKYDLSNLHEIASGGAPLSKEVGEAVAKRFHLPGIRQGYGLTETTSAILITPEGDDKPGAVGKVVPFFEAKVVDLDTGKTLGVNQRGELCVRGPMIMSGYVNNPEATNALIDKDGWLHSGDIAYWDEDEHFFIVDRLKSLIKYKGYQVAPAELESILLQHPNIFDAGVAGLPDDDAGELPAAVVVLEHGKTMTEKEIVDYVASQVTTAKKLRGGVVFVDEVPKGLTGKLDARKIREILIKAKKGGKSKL
Nonstructural protein 1, sequence (Q194T2 whole entry): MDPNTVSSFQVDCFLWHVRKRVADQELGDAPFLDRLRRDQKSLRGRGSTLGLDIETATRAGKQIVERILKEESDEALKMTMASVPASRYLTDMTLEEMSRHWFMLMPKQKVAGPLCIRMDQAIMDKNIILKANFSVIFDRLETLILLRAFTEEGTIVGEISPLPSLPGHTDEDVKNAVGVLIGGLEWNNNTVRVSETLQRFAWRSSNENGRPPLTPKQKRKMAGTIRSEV
Genome polyprotein, sequence (P29990 2492-3391 limits assumed): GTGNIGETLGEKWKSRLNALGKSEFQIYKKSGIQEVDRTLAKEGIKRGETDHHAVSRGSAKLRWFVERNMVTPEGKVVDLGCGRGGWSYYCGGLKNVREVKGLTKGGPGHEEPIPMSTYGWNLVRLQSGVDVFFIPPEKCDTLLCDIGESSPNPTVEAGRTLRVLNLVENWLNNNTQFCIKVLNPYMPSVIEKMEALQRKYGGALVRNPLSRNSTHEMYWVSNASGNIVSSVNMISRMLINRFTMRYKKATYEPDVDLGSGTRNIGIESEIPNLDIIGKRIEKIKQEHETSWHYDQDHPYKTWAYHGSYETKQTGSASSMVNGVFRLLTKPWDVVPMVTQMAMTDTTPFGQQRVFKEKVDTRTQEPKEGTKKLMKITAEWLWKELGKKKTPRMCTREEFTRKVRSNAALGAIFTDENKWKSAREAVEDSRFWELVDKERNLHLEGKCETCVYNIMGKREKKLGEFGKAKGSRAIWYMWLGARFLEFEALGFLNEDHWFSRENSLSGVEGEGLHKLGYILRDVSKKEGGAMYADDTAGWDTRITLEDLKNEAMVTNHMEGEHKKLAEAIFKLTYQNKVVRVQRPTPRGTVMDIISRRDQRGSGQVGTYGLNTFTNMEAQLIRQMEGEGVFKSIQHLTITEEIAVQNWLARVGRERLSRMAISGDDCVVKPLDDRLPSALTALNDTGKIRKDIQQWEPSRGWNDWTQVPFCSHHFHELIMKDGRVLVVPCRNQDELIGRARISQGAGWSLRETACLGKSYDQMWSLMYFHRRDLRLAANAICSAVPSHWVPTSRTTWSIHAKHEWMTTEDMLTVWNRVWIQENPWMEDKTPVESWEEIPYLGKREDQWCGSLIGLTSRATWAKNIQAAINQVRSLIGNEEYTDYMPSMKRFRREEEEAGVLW

What is called EC50 is the midpoint of the concentration-response curve. Take `CC(=O)N1c2ccc(S(=O)(=O)NCC3CCC(C(=O)N4CC(C)CC(C)C4)CC3)cc2CC1C` (centres undefined): the EC50 in assay [1], in assay [2] and in assay [3] was > 120 µM (not active) each time. One may read the IC50 as the midpoint of a concentration-inhibition curve. On to `Cc1c(C(=O)OC(C)C)sc(NC(=O)c2cccnc2)c1C#N`, for which the IC50 in assay [4] is 1.82 µM (active). Turning to `COc1ccc(CCNC(=O)c2ccc3c(c2)SC2=NS(=O)(=O)CCN23)cc1`, the EC50 in [5] and in assay [6] was > 112 µM (not active) throughout. Turning to `CCCc1cc(NCC2CCCO2)n2c(nc3ccccc32)c1C#N` (centres undefined), the IC50 in assay [4] is 8.03 µM (active).

For the compound `CC1CCCCC1NC(=O)Cn1nnc2ccccc2c1=O` (centres undefined), the concentration for a half-maximal effect (EC50) in [1], in assay [2] and in assay [3] was > 120 µM (not active) each time. For the compound `CCOC(CNC(=O)CCc1c(C)nc2nc(C)nn2c1C)OCC`, the 50% effective concentration (EC50) in assay [7] and in [8] was > 300 µM (not active) each time. `Cc1cc(C)c2cc(C#N)c(N3CCCN(C(S)=NCCCN(C)C)CC3)nc2c1`: the EC50 in [1] was > 60 µM (not active); in [2], 9.29 µM (active); in assay [3], > 120 µM (not active). On to `CCc1ccc(C(=O)COC(=O)CNC(=O)c2ccco2)cc1`, for which the EC50 in [5] and in [6] was > 112 µM (not active) each time. As for `O=C(CCCn1nnc2ccccc2c1=O)N[C@H](C(=O)O)c1ccccc1`, the 50% effective concentration (EC50) in [5] and in assay [6] was > 112 µM (not active) throughout. `O=C(O)C1=CC[C@@H](c2ccc(Cl)cc2)N(S(=O)(=O)c2ccc(Cl)cc2)[C@H]1c1ccc(F)cc1`: the IC50 in assay [4] is 13.2 µM (active).

With `COc1ccc(CNC(=O)c2cc(S(=O)(=O)N3CCCC3)cn2C)cc1`, the EC50 in assay [5] and in assay [6] was > 112 µM (not active) in each case. `COc1ccc(NC(=O)c2cc([N+](=O)[O-])ccc2NC(=O)CNCc2ccccn2)c(OC)c1`: the concentration for half-maximal inhibition (IC50) in assay [9] was 4.45 µM (active). As for `CCN1CCSc2ccc(C(=O)NCc3ccccc3C)cc21`, the concentration giving a half-maximal response (EC50) in assay [5] and in assay [6] was > 112 µM (not active) each time. In the case of `COc1ccc(NC(=O)c2ccc(NCCCN3CCOCC3)c([N+](=O)[O-])c2)cc1`, the 50% effective concentration (EC50) in assay [7] and in assay [8] was > 300 µM (not active) throughout.

With `COC(=O)C(O)(c1cn(C)c2ccccc12)C(F)(F)F` (centres undefined), the EC50 in assay [5] and in assay [6] was > 112 µM (not active) throughout.

Consider `c1ccc(CNc2nc3ccccc3n3cnnc23)cc1`, for which the EC50 was > 120 µM (not active) in assay [1], 22.2 µM (active) in [2] and > 120 µM (not active) in assay [3]. In the case of `CC(C)c1ccccc1NC(=O)COC(=O)CCN1C(=O)/C(=C\C=C\c2ccccc2)SC1=S`, the EC50 was 1.54 µM (active) in assay [1], 7.14 µM (active) in assay [2] and 27.8 µM (active) in assay [3]. As a reminder, the AC50 is the concentration giving half of the maximal activity seen. In the case of `CCCCN1C2=NCCCN2c2cc(C)c(C)cc21`, the results for the AC50 in assay [10] and in assay [11] were 4.56 µM (active) and 0.803 µM (active), respectively.

As for `O=C1NC(=O)C(=Cc2coc3ccccc3c2=O)C(=O)N1`, the IC50 is > 100 µM (active) in [12] and 15.1 µM (active) in [4]. For the compound `CCOc1cc(/C=C/c2cccc[n+]2C)ccc1OCC(=O)Nc1ccc(C)cc1`, the EC50 in assay [7] and in assay [8] was > 300 µM (not active) in each case. As for `CC(C)(C)C(=O)/C(=C\c1ccc([N+](=O)[O-])cc1)n1cncn1`, the EC50 in [5] was > 112 µM (not active); in assay [6], 5.77 µM (active); in assay [13] it was 1.29 µM (active); in assay [14], 1.58 µM (active). Consider `O=C(Nc1ccccc1)c1cccc(S(=O)(=O)NC2CCCC2)c1`, for which, in assay [4], the IC50 was 13.2 µM (active).

With `CCCCCCCCN1[C@@H](CC(=O)O)c2ccc(C(F)(F)F)cc2S1(=O)=O`, the IC50 in [4] was 18.2 µM (active). On to `O=C(N/N=C/c1ccc(Cl)cc1)c1cc(-c2cccnc2)nc2ccccc12`, for which the EC50 in assay [1] was > 120 µM (not active); in [2], 9.23 µM (active); in assay [3], 12.8 µM (active).

In the case of `O=C(C[C@@H]1CC[C@H](NC(=O)c2cccc(F)c2)[C@H](CO)O1)NCc1ccc(Oc2ccccc2)cc1`, the AC50 in assay [15] was 27 µM (active); in assay [16], 28.5 µM (active); in assay [17] it was 15.2 µM (active). Regarding `COc1ccc(S(=O)(=O)N(C)C[C@@H]2Oc3ccc(NC(=O)Cn4cnnn4)cc3CC(=O)N([C@H](C)CO)C[C@@H]2C)cc1`, the concentration at half-maximal activity (AC50) was 2.33 µM (active) in assay [15], 3.38 µM (active) in assay [16] and 3.68 µM (active) in assay [17]. With `Cc1ccc(S(=O)(=O)Nc2ccc3c(c2)CC(=O)N([C@H](C)CO)C[C@H](C)[C@H](CN(C)S(=O)(=O)c2ccc(C)cc2)O3)cc1`, the AC50 in [16] was 1.19 µM (active); in [17], 4.36 µM (active). For the compound `Cc1c(NC(=S)N/N=C/c2ccc([N+](=O)[O-])cc2O)c(=O)n(-c2ccccc2)n1C`, the half-inhibitory concentration (IC50) in [9] was 5.14 µM (active). In the case of `CN(C)c1ccc2c(c1)[C@H]1C[C@H](CC(=O)NCc3ccc(Oc4ccccc4)cc3)O[C@H](CO)[C@H]1O2`, the AC50 in [18] is 10.5 µM (active).

As to `COc1ccc2c3c([nH]c2c1)[C@H](CO)N(Cc1ccccc1OC)CC31CCN(S(=O)(=O)c2ccccc2)CC1`, the half-maximal activity concentration (AC50) in assay [18] is 6.43 µM (active). Same read-out and setting: with `CCCNC(=O)Nc1ccc2c(c1)OC[C@H](C)N(Cc1ccc(-c3ccccn3)cc1)C[C@H](C)[C@H](OC)CN(C)C2=O` the figure was 5.09 µM (active); with `O=C(Nc1ccc(F)cc1)N1CCCCN2[C@H](C1)[C@H](c1ccc(C#Cc3ccccc3)cc1)[C@@H]2CO`, 5.46 µM (active); with `CO[C@H]1CN(C)C(=O)c2cc(NC(=O)Cc3ccccc3)ccc2OC[C@H](C)N(C(=O)c2ccccc2F)C[C@H]1C`, 4.94 µM (active).
